# Source: article PMC4310556, “Radiosynthesis and in Vivo Evaluation of Two PET Radioligands for Imaging α-Synuclein” (Applied sciences (Basel, Switzerland), 2014)
# “And” between values parts separate entries of the source, which are not always exact repeats. Equal entries are not always repeated.
# Columns and labels:
# [1] = Ex vivo biodistribution in rats; parameters: species or system Sprague-Dawley rats; conditions: for Blood-brain barrier penetration: ex vivo rat biodistribution; for Biodistribution, blood / Biodistribution, bone / Biodistribution, brain (total brain uptake) / Biodistribution, fat / Biodistribution, heart / Biodistribution, kidney / Biodistribution, liver / Biodistribution, lung / Biodistribution, muscle / Biodistribution, pancreas / Biodistribution, spleen: male Sprague-Dawley rats, i.v. tail vein, n = 4; for Distribution of radioactivity in brain regions: rat brain regions, Figure 2
# Experimental: All animal experiments were conducted in compliance with the Guidelines for the Care and Use of Research Animals under protocols approved by Washington University's Animal Studies Committee. […] Group of rats (n = 4) were used for each time point. […] The whole brain was quickly removed and dissected into segments consisting of brain stem, thalamus, striatum, hippocampus, cortex and cerebellum. The remainder of the brain was also collected to determine total brain uptake. […] Tissues were weighed, and the percent injected dose (%ID)/gram for each tissue was calculated.
# [2] = MicroPET brain imaging in cynomolgus macaque; format: in vivo
# Experimental: Before each scan (n = 2), the animal was fasted for 12 h and then initially anesthetized with ketamine (10 mg/kg) and glycopyrrolate (0.13 mg/kg) intramuscularly. Upon arrival at the scanner, the monkey was intubated, and a percutaneous catheter placed for tracer injection. The head was positioned supine in the adjustable head holder with the brain in the center of the field of view. Anesthesia was maintained at 0.75%–2.0% isoflurane/oxygen and the core temperature maintained at 37 °C. A 10-min transmission scan was performed to confirm positioning; this was followed by a 45-min transmission scan for attenuation correction.
# [3] = healthy cynomolgus macaque, microPET
smiles,measurement,setting,value
O=[N+]([O-])c1ccc2c(c1)Sc1cc(OCC[18F])ccc1N2 [[^18F]2b],Blood-brain barrier penetration,[1],crossed the blood-brain barrier (BBB)
same,"Biodistribution, blood",[1]; 5 min post injection,0.553 ± 0.047 %ID/gram
same,"Biodistribution, bone",[1]; 5 min post injection,0.340 ± 0.027 %ID/gram
same,"Biodistribution, brain (total brain uptake)",[1]; 5 min post injection,0.758 ± 0.013 %ID/gram
same,"Biodistribution, fat",[1]; 5 min post injection,0.255 ± 0.037 %ID/gram
same,"Biodistribution, heart",[1]; 5 min post injection,0.757 ± 0.033 %ID/gram
same,"Biodistribution, kidney",[1]; 5 min post injection,1.070 ± 0.058 %ID/gram
same,"Biodistribution, liver",[1]; 5 min post injection,1.626 ± 0.221 %ID/gram
same,"Biodistribution, lung",[1]; 5 min post injection,0.833 ± 0.053 %ID/gram
same,"Biodistribution, muscle",[1]; 5 min post injection,0.430 ± 0.031 %ID/gram
same,"Biodistribution, pancreas",[1]; 5 min post injection,1.004 ± 0.147 %ID/gram
same,"Biodistribution, spleen",[1]; 5 min post injection,0.672 ± 0.064 %ID/gram
same,"Biodistribution, blood",[1]; 30 min post injection,0.589 ± 0.016 %ID/gram
same,"Biodistribution, bone",[1]; 30 min post injection,0.309 ± 0.020 %ID/gram
same,"Biodistribution, brain (total brain uptake)",[1]; 30 min post injection,0.465 ± 0.018 %ID/gram
same,"Biodistribution, fat",[1]; 30 min post injection,0.425 ± 0.023 %ID/gram
same,"Biodistribution, heart",[1]; 30 min post injection,0.505 ± 0.015 %ID/gram
same,"Biodistribution, kidney",[1]; 30 min post injection,0.988 ± 0.090 %ID/gram
same,"Biodistribution, liver",[1]; 30 min post injection,0.847 ± 0.027 %ID/gram
same,"Biodistribution, lung",[1]; 30 min post injection,0.561 ± 0.021 %ID/gram
same,"Biodistribution, muscle",[1]; 30 min post injection,0.451 ± 0.018 %ID/gram
same,"Biodistribution, pancreas",[1]; 30 min post injection,0.546 ± 0.068 %ID/gram
same,"Biodistribution, spleen",[1]; 30 min post injection,0.509 ± 0.022 %ID/gram
same,"Biodistribution, blood",[1]; 60 min post injection,0.606 ± 0.035 %ID/gram
same,"Biodistribution, bone",[1]; 60 min post injection,0.407 ± 0.043 %ID/gram
same,"Biodistribution, brain (total brain uptake)",[1]; 60 min post injection,0.410 ± 0.030 %ID/gram
same,"Biodistribution, fat",[1]; 60 min post injection,0.371 ± 0.067 %ID/gram
same,"Biodistribution, heart",[1]; 60 min post injection,0.466 ± 0.040 %ID/gram
same,"Biodistribution, kidney",[1]; 60 min post injection,0.678 ± 0.032 %ID/gram
same,"Biodistribution, liver",[1]; 60 min post injection,0.561 ± 0.028 %ID/gram
same,"Biodistribution, lung",[1]; 60 min post injection,0.491 ± 0.030 %ID/gram
same,"Biodistribution, muscle",[1]; 60 min post injection,0.376 ± 0.019 %ID/gram
same,"Biodistribution, pancreas",[1]; 60 min post injection,0.409 ± 0.029 %ID/gram
same,"Biodistribution, spleen",[1]; 60 min post injection,0.446 ± 0.038 %ID/gram
same,"Biodistribution, blood",[1]; 120 min post injection,0.585 ± 0.046 %ID/gram
same,"Biodistribution, bone",[1]; 120 min post injection,0.644 ± 0.071 %ID/gram
same,"Biodistribution, brain (total brain uptake)",[1]; 120 min post injection,0.359 ± 0.016 %ID/gram
same,"Biodistribution, fat",[1]; 120 min post injection,0.293 ± 0.048 %ID/gram
same,"Biodistribution, heart",[1]; 120 min post injection,0.410 ± 0.030 %ID/gram
same,"Biodistribution, kidney",[1]; 120 min post injection,0.659 ± 0.027 %ID/gram
same,"Biodistribution, liver",[1]; 120 min post injection,0.467 ± 0.023 %ID/gram
same,"Biodistribution, lung",[1]; 120 min post injection,0.436 ± 0.018 %ID/gram
same,"Biodistribution, muscle",[1]; 120 min post injection,0.315 ± 0.015 %ID/gram
same,"Biodistribution, pancreas",[1]; 120 min post injection,0.330 ± 0.021 %ID/gram
same,"Biodistribution, spleen",[1]; 120 min post injection,0.398 ± 0.019 %ID/gram
same,Distribution of radioactivity in brain regions,[1],homogeneous distribution in the brain regions
same,In vivo defluorination (bone uptake),"[1]; rats, bone uptake up to 120 min",no defluorination was observed
[11CH3]Oc1ccc2c(c1)Sc1cc([N+](=O)[O-])ccc1N2 [[^11C]2a],Blood-brain barrier penetration,[1],crossed the blood-brain barrier (BBB)
same,"Biodistribution, blood",[1]; 5 min post injection,0.506 ± 0.040 %ID/gram
same,"Biodistribution, brain (total brain uptake)",[1]; 5 min post injection,0.953 ± 0.115 %ID/gram
same,"Biodistribution, fat",[1]; 5 min post injection,0.155 ± 0.023 %ID/gram
same,"Biodistribution, heart",[1]; 5 min post injection,0.758 ± 0.052 %ID/gram
same,"Biodistribution, kidney",[1]; 5 min post injection,1.362 ± 0.054 %ID/gram
same,"Biodistribution, liver",[1]; 5 min post injection,2.198 ± 0.111 %ID/gram
same,"Biodistribution, lung",[1]; 5 min post injection,1.149 ± 0.058 %ID/gram
same,"Biodistribution, muscle",[1]; 5 min post injection,0.271 ± 0.005 %ID/gram
same,"Biodistribution, pancreas",[1]; 5 min post injection,1.007 ± 0.262 %ID/gram
same,"Biodistribution, spleen",[1]; 5 min post injection,0.659 ± 0.049 %ID/gram
same,"Biodistribution, blood",[1]; 30 min post injection,0.369 ± 0.031 %ID/gram
same,"Biodistribution, brain (total brain uptake)",[1]; 30 min post injection,0.287 ± 0.046 %ID/gram
same,"Biodistribution, fat",[1]; 30 min post injection,0.241 ± 0.042 %ID/gram
same,"Biodistribution, heart",[1]; 30 min post injection,0.377 ± 0.046 %ID/gram
same,"Biodistribution, kidney",[1]; 30 min post injection,0.807 ± 0.086 %ID/gram
same,"Biodistribution, liver",[1]; 30 min post injection,1.349 ± 0.116 %ID/gram
same,"Biodistribution, lung",[1]; 30 min post injection,0.740 ± 0.038 %ID/gram
same,"Biodistribution, muscle",[1]; 30 min post injection,0.325 ± 0.030 %ID/gram
same,"Biodistribution, pancreas",[1]; 30 min post injection,0.506 ± 0.066 %ID/gram
same,"Biodistribution, spleen",[1]; 30 min post injection,0.400 ± 0.052 %ID/gram
same,"Biodistribution, blood",[1]; 60 min post injection,0.300 ± 0.015 %ID/gram
same,"Biodistribution, brain (total brain uptake)",[1]; 60 min post injection,0.158 ± 0.014 %ID/gram and 0.158 ± 0.013 %ID/gram
same,"Biodistribution, fat",[1]; 60 min post injection,0.293 ± 0.076 %ID/gram
same,"Biodistribution, heart",[1]; 60 min post injection,0.245 ± 0.010 %ID/gram
same,"Biodistribution, kidney",[1]; 60 min post injection,0.559 ± 0.053 %ID/gram
same,"Biodistribution, liver",[1]; 60 min post injection,1.116 ± 0.024 %ID/gram
same,"Biodistribution, lung",[1]; 60 min post injection,0.485 ± 0.036 %ID/gram
same,"Biodistribution, muscle",[1]; 60 min post injection,0.199 ± 0.016 %ID/gram
same,"Biodistribution, pancreas",[1]; 60 min post injection,0.522 ± 0.036 %ID/gram
same,"Biodistribution, spleen",[1]; 60 min post injection,0.386 ± 0.027 %ID/gram
same,Distribution of radioactivity in brain regions,[1],homogeneous distribution in the brain regions
same,Time of peak brain uptake post-injection (time-activity curve),"[2]; healthy adult male cynomolgus macaque, i.v., microPET",3 min
same,Blood-brain barrier penetration,[2]; [3],able to cross the BBB
same,Brain washout kinetics,[2]; [3],fast washout kinetics from the brain regions
same,Distribution of radioactivity in the brain,"[2]; healthy cynomolgus macaque, summed image 0-120 min",homogeneous distribution of radioactivity in the brain
